Assays:
Assay type in all cases: biochemical
[1] = target: T1, full length Aurora-A (AA 1-403) (Homo sapiens, UniProt O14965); assay: Aurora-A inhibition assay, standard coupled enzyme system; conditions: average Ki if more than one value determined
T1 construct: full length Aurora-A (AA 1-403)
T1 sequence (O14965 1-403): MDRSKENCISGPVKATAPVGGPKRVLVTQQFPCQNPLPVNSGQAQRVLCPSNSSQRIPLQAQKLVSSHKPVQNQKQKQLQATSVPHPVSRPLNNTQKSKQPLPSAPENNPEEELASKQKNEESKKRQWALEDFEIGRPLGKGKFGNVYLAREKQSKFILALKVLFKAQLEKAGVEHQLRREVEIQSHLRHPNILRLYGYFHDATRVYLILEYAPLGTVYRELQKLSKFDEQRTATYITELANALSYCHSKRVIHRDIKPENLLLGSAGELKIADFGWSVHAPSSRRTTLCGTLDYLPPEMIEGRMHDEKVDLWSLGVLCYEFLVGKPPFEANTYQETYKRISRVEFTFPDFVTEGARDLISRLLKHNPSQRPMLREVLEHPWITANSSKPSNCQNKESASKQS

JAK2 = JAK2 (Homo sapiens, UniProt O60674); assay: JAK2 inhibition assay (radioactive enzyme assay, as for JAK3); conditions: average Ki if more than one value determined
Procedure, shortened: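 Both kinases: poly(Glu)4Tyr substrate in 100 mM HEPES pH 7.4, 10 mM MgCl2, 1 mM DTT. Run 20 min at 25° C, TCA stop, filter-bound ³³P counted, Ki(app) fitted after background subtraction. JAK3: final [γ-³³P]ATP 5 μM, enzyme added as 2 nM solution. JAK2: final poly(Glu)4Tyr 15 μM, final ATP 12 μM.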

ROCK I (AA 6-553) = target: T2, ROCK I (AA 6-553) (Homo sapiens, UniProt Q13464); assay: ROCK inhibition assay, standard coupled enzyme system ("Enzyme"); conditions: enzyme-linked assay
T2 construct: ROCK I (AA 6-553)
Procedure, shortened: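 ROCK I (AA 6-553) at 45 nM and 30 °C with 45 μM ATP and 200 μM peptide, in 100 mM HEPES pH 7.5, 10 mM MgCl2, 25 mM NaCl, 2 mM DTT, 1.5% DMSO. ADP output read by a PK/LDH coupled system: 2.5 mM PEP, 350 μM NADH, 30 μg/ml PK, 10 μg/ml LDH.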

JAK3 = target: T3, JAK3 (Homo sapiens, UniProt P52333); assay: JAK3 inhibition assay (standard radioactive enzyme assay); conditions: average Ki if more than one value determined
T3 sequence (P52333 1-1124): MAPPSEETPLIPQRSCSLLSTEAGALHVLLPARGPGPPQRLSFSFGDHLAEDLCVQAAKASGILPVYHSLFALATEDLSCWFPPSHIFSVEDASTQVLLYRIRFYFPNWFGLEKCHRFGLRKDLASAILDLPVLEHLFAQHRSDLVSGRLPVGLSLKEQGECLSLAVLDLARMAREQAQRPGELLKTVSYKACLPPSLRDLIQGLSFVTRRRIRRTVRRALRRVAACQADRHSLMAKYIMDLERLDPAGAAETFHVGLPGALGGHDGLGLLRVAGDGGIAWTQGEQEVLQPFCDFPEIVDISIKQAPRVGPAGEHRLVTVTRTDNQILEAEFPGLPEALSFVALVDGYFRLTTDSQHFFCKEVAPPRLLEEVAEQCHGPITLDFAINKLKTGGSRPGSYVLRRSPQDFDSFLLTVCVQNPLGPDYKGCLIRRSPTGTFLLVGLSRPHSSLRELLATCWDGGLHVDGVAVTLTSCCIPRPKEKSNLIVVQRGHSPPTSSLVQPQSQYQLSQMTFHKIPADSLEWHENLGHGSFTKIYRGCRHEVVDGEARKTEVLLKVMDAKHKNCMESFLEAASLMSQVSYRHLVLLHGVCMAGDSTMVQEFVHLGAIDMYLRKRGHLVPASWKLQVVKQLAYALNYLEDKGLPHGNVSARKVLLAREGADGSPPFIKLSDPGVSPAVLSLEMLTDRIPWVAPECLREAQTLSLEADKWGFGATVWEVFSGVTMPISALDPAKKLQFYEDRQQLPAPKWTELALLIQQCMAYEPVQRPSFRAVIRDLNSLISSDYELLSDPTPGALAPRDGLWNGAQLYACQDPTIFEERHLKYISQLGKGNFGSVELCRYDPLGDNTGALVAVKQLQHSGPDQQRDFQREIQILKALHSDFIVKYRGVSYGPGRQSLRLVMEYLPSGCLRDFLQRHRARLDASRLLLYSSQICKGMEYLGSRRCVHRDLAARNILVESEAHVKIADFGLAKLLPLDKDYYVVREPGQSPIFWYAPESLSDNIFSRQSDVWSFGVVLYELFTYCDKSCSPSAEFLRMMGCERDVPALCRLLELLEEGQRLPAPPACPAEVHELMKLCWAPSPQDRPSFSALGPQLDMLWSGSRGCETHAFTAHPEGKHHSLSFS

Aurora-B = Aurora-B (Homo sapiens, UniProt Q96GD4); assay: Aurora-B inhibition assay, radioactive assay; conditions: average Ki if more than one value determined
Experimental: Compounds were screened for their ability to inhibit JAK3 using a standard radioactive enzyme assay. 1.5 μL/well of a DMSO stock containing serial dilutions of a compound of the present invention (concentrations ranging from 667 μM to 46 nM) was placed in a 96 well polycarbonate plate. 50 μL per well of kinase buffer (100 mM HEPES (pH 7.4), 10 mM MgCl2, 25 mM NaCl, 1 mM DTT, and 0.01% bovine serum albumin (BSA)) containing 2 μM poly(Glu)4Tyr and 10 μM ATP was also added to the plate. To initiate the reaction, 50 μL kinase buffer containing 2 nM JAK3 enzyme was added. Final ATP concentration was 5 μM [γ-^33P] ATP (200 μCi ^33P ATP/μmol ATP (Perkin Elmer, Cambridge, Mass.). After 20 minutes at room temperature (25° C.), the reaction was stopped by adding 50 μL 20% trichloroacetic acid (TCA)/0.4 mM ATP to each well. The entire content of each well was then transferred to a 96 well glass fiber filter plate using a TomTek Cell Harvester. After washing, 60 μL scintillation fluid was added and ^33P incorporation detected using a Perkin Elmer TopCount. After removing mean background values for all of the data points the data was fit using Prism software to obtain a Ki(app). Inhibition of JAK2 was measured as above except that final poly(Glu)4Tyr concentration was 15 μM and final ATP concentration was 12 μM.
Some compounds were screened for their ability to inhibit ROCK using a standard radioactive enzyme assay. Assays were carried out in a solution containing 100 mM HEPES (pH 7.5), 10 mM MgCl2, 25 mM NaCl, 2 mM DTT, and 1.5% DMSO. Final substrate concentrations in the assay were 13 μM [γ-^33P] ATP (25 mCi ^33P ATP/mmol ATP, Perkin Elmer, Cambridge, Mass./Sigma Chemicals, St Louis, Mo.) and 27 μM Myelin Basic Protein (MBP). Final enzyme concentration in the assay was 5 nM ROCK. Assays were carried out at room temperature. 1.5 μl of DMSO stock containing serial dilutions of the compound of the present invention (concentrations ranging from 10 μM to 2.6 nM) was placed in a 96 well plate. 50 μl of Solution 1 (100 mM HEPES (pH 7.5), 10 mM MgCl2, […]) was added to the plate. The reaction was initiated by addition of 50 μl of Solution 2 (100 mM HEPES (pH 7.5), 10 mM MgCl2, 4 mM DTT, […] and 10 nM ROCK). After 2 hours the reaction was quenched with 50 μL of 30% trichloroacetic acid (TCA, Fisher) containing 9 mM ATP. Transfer of 140 μL of the quenched reaction to a glass fiber filter plate (Corning, Cat. No. 3511) was followed by washing 3 times with 5% TCA. 50 μL of Optima Gold scintillation fluid (Perkin Elmer) was added and the plates were counted on a Top Count (Perkin Elmer). After removing mean background values for all of the data points the data was fit using Prism software to obtain a Ki(app).
An assay stock buffer solution was prepared containing all of the reagents listed above with the exception of ATP and the test compound of interest. The assay stock buffer solution (60 μl) was incubated in a 96 well plate with 2 μl of the test compound of interest at final concentrations spanning 0.002 μM to 30 μM at 30° C. for 10 min. Typically, a 12 point titration was conducted by preparing serial dilutions (from 1 mM compound stocks) with DMSO of the test compounds in daughter plates. The reaction was initiated by the addition of 5 μl of ATP (final concentration 200 μM). Rates of reaction were obtained using a Molecular Devices Spectramax plate reader (Sunnyvale, Calif.) over 10 min at 30° C. The Ki values were determined from the rate data as a function of inhibitor concentration using computerized nonlinear regression (Prism 3.0, Graphpad Software, San Diego, Calif.). Aurora-C activity was screened in a similar manner using Aurora-C protein. Aurora-B activity was screened using a radioactive assay, such as described in Examples 1 and 2, but using Aurora-B protein.

Chain of Aurora-B (Q96GD4 whole entry): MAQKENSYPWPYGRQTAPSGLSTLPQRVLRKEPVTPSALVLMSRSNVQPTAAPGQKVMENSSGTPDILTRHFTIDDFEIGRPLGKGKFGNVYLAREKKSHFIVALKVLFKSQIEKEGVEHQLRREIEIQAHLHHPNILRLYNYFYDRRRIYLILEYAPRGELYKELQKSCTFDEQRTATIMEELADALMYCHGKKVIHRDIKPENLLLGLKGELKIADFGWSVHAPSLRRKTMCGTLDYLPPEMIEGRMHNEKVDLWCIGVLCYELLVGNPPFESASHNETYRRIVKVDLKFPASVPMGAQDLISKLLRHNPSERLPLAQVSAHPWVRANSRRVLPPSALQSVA
Chain of JAK2 (O60674 whole entry, species assumed): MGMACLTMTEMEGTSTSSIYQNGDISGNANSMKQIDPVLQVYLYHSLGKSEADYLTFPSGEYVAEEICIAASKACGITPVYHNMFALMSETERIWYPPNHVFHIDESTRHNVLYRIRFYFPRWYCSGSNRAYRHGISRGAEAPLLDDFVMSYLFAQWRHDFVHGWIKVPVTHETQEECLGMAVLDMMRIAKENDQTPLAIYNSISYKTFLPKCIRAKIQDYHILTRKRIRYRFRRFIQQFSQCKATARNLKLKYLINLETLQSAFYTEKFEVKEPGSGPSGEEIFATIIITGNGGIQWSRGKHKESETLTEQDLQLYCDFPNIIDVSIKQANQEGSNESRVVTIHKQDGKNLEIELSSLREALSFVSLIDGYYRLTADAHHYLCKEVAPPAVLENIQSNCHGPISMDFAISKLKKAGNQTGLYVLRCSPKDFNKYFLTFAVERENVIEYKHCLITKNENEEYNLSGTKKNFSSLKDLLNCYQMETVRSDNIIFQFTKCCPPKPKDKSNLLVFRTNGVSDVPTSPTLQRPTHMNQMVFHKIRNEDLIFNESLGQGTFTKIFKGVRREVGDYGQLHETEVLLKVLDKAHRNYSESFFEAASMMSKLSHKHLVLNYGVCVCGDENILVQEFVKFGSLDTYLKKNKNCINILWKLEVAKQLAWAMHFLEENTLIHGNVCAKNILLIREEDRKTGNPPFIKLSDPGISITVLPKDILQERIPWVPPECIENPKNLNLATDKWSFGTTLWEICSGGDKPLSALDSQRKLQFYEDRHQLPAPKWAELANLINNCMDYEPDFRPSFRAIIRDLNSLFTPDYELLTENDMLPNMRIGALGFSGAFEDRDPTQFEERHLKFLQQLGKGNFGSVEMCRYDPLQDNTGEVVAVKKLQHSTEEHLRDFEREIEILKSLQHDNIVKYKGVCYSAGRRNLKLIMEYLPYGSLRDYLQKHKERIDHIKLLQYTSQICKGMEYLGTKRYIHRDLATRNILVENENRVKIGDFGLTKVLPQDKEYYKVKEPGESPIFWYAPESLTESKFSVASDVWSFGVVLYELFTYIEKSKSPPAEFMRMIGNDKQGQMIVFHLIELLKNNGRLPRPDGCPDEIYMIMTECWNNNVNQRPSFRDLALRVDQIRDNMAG
T2 sequence (Q13464 6-553, species assumed): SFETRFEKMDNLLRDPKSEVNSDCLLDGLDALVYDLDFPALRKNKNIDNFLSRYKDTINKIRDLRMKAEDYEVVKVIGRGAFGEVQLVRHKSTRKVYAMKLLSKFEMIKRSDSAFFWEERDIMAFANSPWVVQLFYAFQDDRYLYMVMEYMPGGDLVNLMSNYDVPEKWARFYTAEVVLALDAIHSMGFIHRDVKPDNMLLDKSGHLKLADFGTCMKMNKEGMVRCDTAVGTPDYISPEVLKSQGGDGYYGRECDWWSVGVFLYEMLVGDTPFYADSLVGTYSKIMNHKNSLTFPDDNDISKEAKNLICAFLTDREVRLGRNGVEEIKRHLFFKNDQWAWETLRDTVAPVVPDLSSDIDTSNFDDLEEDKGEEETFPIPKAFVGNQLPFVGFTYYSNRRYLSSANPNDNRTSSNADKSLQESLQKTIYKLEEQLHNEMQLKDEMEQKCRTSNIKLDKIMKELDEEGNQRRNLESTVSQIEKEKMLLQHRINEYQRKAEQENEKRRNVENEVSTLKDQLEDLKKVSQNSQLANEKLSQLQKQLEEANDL

| Compound | Ki [1] [nM] | Ki (JAK2) [nM] | Ki (ROCK I (AA 6-553)) [nM] | Ki (JAK3) [nM] | Ki (Aurora-B) [nM] |
| --- | --- | --- | --- | --- | --- |
| CC(=O)N1[C@H](C)CN(c2cccc(-c3c[nH]c4ncc(NC(=O)c5cccnc5)cc34)n2)C[C@@H]1C [Compound 163] | 500 to 5000 | < 500 | 500 to 5000 | < 500 |  |
| CC(=O)N1[C@H](C)CN(c2cccc(-c3c[nH]c4ncc(NC(=O)c5cnccn5)cc34)n2)C[C@@H]1C [Compound 164] | 500 to 5000 | < 500 | 500 to 5000 | < 500 |  |
| CC(=O)N1[C@H](C)CN(c2cccc(-c3c[nH]c4ncc(NC(=O)C5CC5)cc34)n2)C[C@@H]1C [Compound 165] | 500 to 5000 | < 500 | 500 to 5000 | < 500 |  |
| CC(=O)N1[C@H](C)CN(c2cccc(-c3c[nH]c4ncc(NC(=O)C5CCCC5)cc34)n2)C[C@@H]1C [Compound 166] | 500 to 5000 | < 500 | 500 to 5000 | < 500 |  |
| CC(=O)N1[C@H](C)CN(c2cccc(-c3c[nH]c4ncc(NC(=O)c5ccno5)cc34)n2)C[C@@H]1C [Compound 167] | 500 to 5000 | < 500 | 500 to 5000 | < 500 |  |
| CC(=O)N1[C@H](C)CN(c2cccc(-c3c[nH]c4ncc(NC(=O)c5cccc(C)c5)cc34)n2)C[C@@H]1C [Compound 168] | 500 to 5000 | < 500 | 500 to 5000 | < 500 |  |
| CC(=O)N1[C@H](C)CN(c2cccc(-c3c[nH]c4ncc(NC(=O)c5cccc(F)c5)cc34)n2)C[C@@H]1C [Compound 169] | 500 to 5000 | < 500 | 500 to 5000 | < 500 |  |
| COCC(=O)Nc1cnc2[nH]cc(-c3cccc(N4C[C@@H](C)N(C(C)=O)[C@@H](C)C4)n3)c2c1 [Compound 170] | 500 to 5000 | < 500 | 500 to 5000 | < 500 |  |
| CC(=O)N1[C@H](C)CN(c2cccc(-c3c[nH]c4ncc(NC(=O)c5ccccc5F)cc34)n2)C[C@@H]1C [Compound 172] | 500 to 5000 | < 500 | < 500 | < 500 |  |
| O=C(O)c1cc(Br)cc(-c2c[nH]c3ncc(Cl)cc23)c1 [Compound 177] | < 500 | < 500 | 500 to 5000 | < 500 |  |
| CC(=O)N1[C@H](C)CN(c2cccc(-c3c[nH]c4ncc(NC(=O)c5cccc(C#N)c5)cc34)n2)C[C@@H]1C [Compound 179] | 500 to 5000 | < 500 | 500 to 5000 | < 500 |  |
| C/C=C/C(=O)Nc1cnc2[nH]cc(-c3cccc(N4C[C@@H](C)N(C(C)=O)[C@@H](C)C4)n3)c2c1 [Compound 181] | 500 to 5000 | < 500 | 500 to 5000 | < 500 |  |
| CC(=O)N1[C@H](C)CN(c2cccc(-c3c[nH]c4ncc(NC(=O)c5cccs5)cc34)n2)C[C@@H]1C [Compound 182] | 500 to 5000 | < 500 | 500 to 5000 | < 500 |  |
| CC(=O)N1[C@H](C)CN(c2cccc(-c3c[nH]c4ncc(NC(=O)c5nc[nH]n5)cc34)n2)C[C@@H]1C [Compound 190] | 500 to 5000 | < 500 | 500 to 5000 | < 500 |  |
| C=C/C=C/C(=O)Nc1cnc2[nH]cc(-c3cccc(N4C[C@@H](C)N(C(C)=O)[C@@H](C)C4)n3)c2c1 [Compound 191] | 500 to 5000 | < 500 | < 500 | < 500 |  |
| CC(=O)N1[C@H](C)CN(c2cccc(-c3c[nH]c4ncc(NC(=O)/C=C/Cl)cc34)n2)C[C@@H]1C [Compound 192] | 500 to 5000 | < 500 | < 500 | < 500 |  |
| COC(=O)COc1cccc([C@H](C)Nc2nc(-c3c[nH]c4ncc(Cl)cc34)ncc2F)c1 [Compound 335] | < 500 |  |  |  | < 500 |
| C#CCNc1nc(-c2c[nH]c3ncc(Cl)cc23)ncc1F [Compound 382] | < 500 |  |  |  | 500 to 5000 |
| C[C@H](Nc1cc(NCCN(C)C)nc(-c2c[nH]c3ncc(Cl)cc23)n1)C(=O)NCC(F)(F)F [Compound 419] | 500 to 5000 |  |  |  | 500 to 5000 |
| C[C@H](Nc1nc(-c2c[nH]c3ncc(Cl)cc23)ncc1F)C(=O)NCCOc1ccccc1 [Compound 457] | 500 to 5000 |  |  |  | 500 to 5000 |
